Results from ChEMBL document CHEMBL1134310, “3-(Arylacetylamino)-N-methylbenzamides: a novel class of selective anti-Helicobacter pylori agents” (2001).
Values after ≈ are worked out from the molar mass of the structure shown.

How the values were obtained:
Assay type in all cases: functional
[1] = system: Helicobacter pylori; assay: Minimum inhibitory concentration against Helicobacter pylori.
[2] = system: Helicobacter pylori; assay: Minimum inhibitory concentration against Helicobacter pylori under acidic conditions at pH 5.0
[3] = system: Helicobacter pylori; assay: Minimum inhibitory concentration against Helicobacter pylori under acidic conditions at pH 6.0
[4] = system: Helicobacter pylori; assay: Minimum inhibitory concentration against Helicobacter pylori under acidic conditions at pH 7.0

Row | MIC [1] | Structure (SMILES) | other results
1 | 0.78 µg/mL (≈ 2.58 µM) | CNC(=O)c1cccc(NC(=O)Cc2ccc(Cl)cc2)c1 | 
2 | 0.1 µg/mL (≈ 0.299 µM) | CNC(=O)c1cccc(NC(=O)OCc2ccc3ccccc3c2)c1 | 
3 | 3.12 µg/mL (≈ 8.64 µM) | CCNC(=O)c1cccc(NC(=O)Cc2cccc(Br)c2)c1 | 
4 | 3.12 µg/mL (≈ 9.96 µM) | CNC(=O)c1cccc(NC(=O)Cc2cccc([N+](=O)[O-])c2)c1 | 
5 | 3.12 µg/mL (≈ 10.9 µM) | CNC(=O)c1cccc(NC(=O)Cc2cccc(F)c2)c1 | 
6 | 0.2 µg/mL (≈ 0.627 µM) | CNC(=O)c1cccc(NC(=O)OCc2ccc(Cl)cc2)c1 | 
7 | 0.78 µg/mL (≈ 2.61 µM) | CNC(=O)c1cccc(NC(=O)Cc2cccc(OC)c2)c1 | 
8 | 0.39 µg/mL (≈ 1.38 µM) | CNC(=O)c1cccc(NC(=O)Cc2cccc(C)c2)c1 | 
9 | 12.5 µg/mL (≈ 44.3 µM) | CNC(=O)c1cccc(NC(=O)CCc2ccccc2)c1 | 
10 | 0.78 µg/mL (≈ 2.54 µM) | CNC(=O)c1cccc(NC(=O)Cc2c[nH]c3ccccc23)c1 | 
11 | 0.78 µg/mL (≈ 2.25 µM) | CNC(=O)c1cccc(NC(=O)Cc2ccc(Br)cc2)c1 | 
12 | 0.2 µg/mL (≈ 0.566 µM) | CNC(=O)c1cccc(NC(=O)OCc2c(Cl)cccc2Cl)c1 | 
13 | 0.39 µg/mL (≈ 1.1 µM) | CNC(=O)c1cccc(NC(=O)COc2cccc(Cl)c2Cl)c1 | 
14 | 1.56 µg/mL (≈ 5.81 µM) | CNC(=O)c1cccc(NC(=O)Cc2ccccc2)c1 | 
15 | 0.78 µg/mL (≈ 2.5 µM) | CNC(=O)c1cccc(NC(=O)CCc2ccccc2OC)c1 | 
16 | 12.5 µg/mL (≈ 34.4 µM) | CONC(=O)c1cccc(NC(=O)Cc2cccc(Br)c2)c1 | 
17 | 0.1 µg/mL (≈ 0.299 µM) | CNC(=O)c1cccc(NC(=O)COc2cccc3ccccc23)c1 | 
18 | 12.5 µg/mL (≈ 35.8 µM) | O=C(Cc1cccc(Br)c1)Nc1cccc(C(=O)NO)c1 | 
19 | 0.78 µg/mL (≈ 2.08 µM) | CNC(=O)c1cccc(NC(=O)Cc2cccc(OCc3ccccc3)c2)c1 | 

Row | MIC [1] | Structure (SMILES) | other results
20 | 0.39 µg/mL (≈ 1.29 µM) | CNC(=O)c1cccc(NC(=O)Cc2cccc(Cl)c2)c1 | 
21 | 3.12 µg/mL (≈ 10.3 µM) | CNC(=O)c1cccc(NC(=O)Cc2ccccc2Cl)c1 | 
22 | 0.39 µg/mL (≈ 1.17 µM) | CNC(=O)c1cccc(NC(=O)COc2ccc3ccccc3c2)c1 | 
23 | 0.1 µg/mL (≈ 0.314 µM) | CNC(=O)c1cccc(NC(=O)Cc2cccc3ccccc23)c1 | MIC [2]: 0.125 µg/mL (≈ 0.393 µM); MIC [3]: 0.125 µg/mL (≈ 0.393 µM); MIC [4]: 0.125 µg/mL (≈ 0.393 µM)
24 | 0.1 µg/mL (≈ 0.308 µM) | CNC(=O)c1cccc(NC(=O)Cc2csc3ccccc23)c1 | MIC [2]: 0.25 µg/mL (≈ 0.771 µM); MIC [3]: 0.25 µg/mL (≈ 0.771 µM); MIC [4]: 0.25 µg/mL (≈ 0.771 µM)
25 | > 100 µg/mL | O=C(Cc1cccc(Br)c1)Nc1cccc(C(=O)O)c1 | 
26 | 0.05 µg/mL (≈ 0.157 µM) | CNC(=O)c1cccc(NC(=O)Cc2ccc3ccccc3c2)c1 | MIC [2]: 0.063 µg/mL (≈ 0.198 µM); MIC [3]: 0.063 µg/mL (≈ 0.198 µM); MIC [4]: 0.063 µg/mL (≈ 0.198 µM)
27 | 3.12 µg/mL (≈ 11 µM) | CNC(=O)c1cccc(NC(=O)COc2ccccc2)c1 | 
28 | 0.39 µg/mL (≈ 1.12 µM) | CNC(=O)c1cccc(NC(=O)Cc2cccc(Br)c2)c1 | 
29 | > 100 µg/mL | CCOC(=O)c1cccc(NC(=O)Cc2cccc(Br)c2)c1 | 
30 | 12.5 µg/mL (≈ 45.6 µM) | CNC(=O)c1cccc(NC(=O)CC2CCCCC2)c1 | 
31 | 100 µg/mL (≈ 300 µM) | NC(=O)c1cccc(NC(=O)Cc2cccc(Br)c2)c1 | 
32 | 0.78 µg/mL (≈ 2.5 µM) | CNC(=O)c1cccc(NC(=O)Cc2ccc3c(c2)OCO3)c1 | 
33 | 0.05 µg/mL (≈ 0.15 µM) | CNC(=O)c1cccc(NC(=O)OCc2cccc3ccccc23)c1 | 
34 | 6.25 µg/mL (≈ 22 µM) | CNC(=O)c1cccc(NC(=O)Cc2cccc(O)c2)c1 | 
35 | 0.1 µg/mL (≈ 0.335 µM) | CNC(=O)c1cccc(NC(=O)OCc2ccc(C)cc2)c1 | 
36 | 25 µg/mL (≈ 69.2 µM) | CN(C)C(=O)c1cccc(NC(=O)Cc2cccc(Br)c2)c1 | 
37 |  | CC1(C)S[C@@H]2[C@H](NC(=O)[C@H](N)c3ccc(O)cc3)C(=O)N2[C@H]1C(=O)O [AMOXICILLIN] | MIC [2]: 0.5 µg/mL (≈ 1.37 µM); MIC [3]: 0.125 µg/mL (≈ 0.342 µM); MIC [4]: 0.031 µg/mL (≈ 0.0848 µM)

Row | Structure (SMILES) | MIC [1] | other results
38 | CC[C@H]1OC(=O)[C@H](C)[C@@H](O[C@H]2C[C@@](C)(OC)[C@@H](O)[C@H](C)O2)[C@H](C)[C@@H](O[C@@H]2O[C@H](C)C[C@H](N(C)C)[C@H]2O)[C@](C)(OC)C[C@@H](C)C(=O)[C@H](C)[C@@H](O)[C@]1(C)O [CLARITHROMYCIN] | 0.05 µg/mL (≈ 0.0668 µM) | MIC [2]: 2 µg/mL (≈ 2.67 µM); MIC [3]: 0.5 µg/mL (≈ 0.668 µM); MIC [4]: 0.063 µg/mL (≈ 0.0842 µM)
